# Assay results published in patent publication US20030114530A1, “Remedies for degenerative arthritis” (priority 2000, published 2003).
# Entries after “also recorded” stand apart in the source; their conditions may differ.
# Assays:
# [1] = system: partial meniscectomy model of osteoarthritis rabbits; assay: partial meniscectomy model of osteoarthritis in rabbits; assay type: in vivo, rabbit
# Description: The effect of the compound on osteoarthritis invented in this study was confirmed by the experiments of a partial meniscectomy model in rabbits.
# Female rabbits (Kbs: NZW(Healthy)) were bred for one week before the experiments. The animals were subjected to OA model according to following method.
# Each animal was anesthetized with a subcutaneous injection of xylazine (0.05 ml/kg) and an intravenous injection of sodium pentobarbital (20 mg/kg). Right hind knee was shaved, and the width of the knee was measured with the micrometer caliper. It was disinfected with iodine solution. If required local anesthesia was performed with lidocaine hydrochloride.
# The skin and articular capsule around right knee were incised at right angle to patellar ligament, the fibular collateral and sesamoid ligament were transected with blades. Adrenaline solution was dropped for the arrest of hemorrhage. The lateral meniscus was partially removed. After washing the operated area with saline solution, the synovium and articular capsule were stitched together. Then muscular coat and skin were put in a suture. […]
# After anesthesia with sodium pentobarbital (40 mg/kg), the hind knee was shaved and the width of them was measured with a micrometer caliper. […] After masking, the area of erosion was measured. […]
# model of OA in rabbits = conditions: Inflamm Res 44, Suppl 2, S117-118 (1995); cited from earlier work
SMILES,"erosion area of femur ([1]; 10, 30, 100 or 300 mg/kg twice a day, oral, 7 days after meniscectomy, FIG. 1)","efficacy in the partial meniscectomy OA model ([1]; rabbits, oral twice a day)",effect on a model of OA (model of OA in rabbits)
"CCOCOC[C@H](C[C@H](C)C(=O)NO)NC(=O)c1ccc(Oc2ccccc2)cc1 [compound of formula (I), N-hydroxy-5-ethoxymethyloxy-2(S)-methyl-4(S)-(4-phenoxybenzoyl)aminopentanamide]",decreasing effect,shows an efficiency; also recorded: high-effectivity,
"COc1ccc(S(=O)(=O)N(Cc2cccnc2)[C@@H](C(=O)NO)C(C)C)cc1.Cl [CGS-27023A, 2(R)-[N-(4-methoxyphenylsulfonyl)-N-(3-pyridylmethyl)amino]-3-methylbutanohydroxamic acid hydrochloride]",,,effected on a model of OA in rabbits
